The target in experiment [1] is T1, recombinant CREBBP bromodomain (Homo sapiens, UniProt Q92793).
T1 construct: recombinant CREBBP bromodomain obtained from BPS Bioscience, USA; purchased BPS Bioscience, USA
The experiment is described as follows: CBP TR-FRET displacement assay. It counts as binding. The note with it: dose-response, read-out: IC50 (group A, B, C). On the procedure: The potency of compounds to inhibit CREBBP enzyme was tested in a TR-FRET displacement assay using recombinant CREBBP bromodomain obtained from BPS Bioscience, USA. The assay buffer was 50 mM HEPES (pH 7.5), 50 mM NaCl, 0.008% Brij 35, 0.01% BSA, 1 mM TCEP. 50 nM of CREBBP & 500 nM of Biotinylated ligand was incubated at room temperature for 30 minutes, the reaction was initiated by adding pre-incubated enzyme ligand mixture to the test compounds. After 60 min incubation, the reaction was stopped by the addition of stop mix containing 1 nM of LANCE Europium-anti-6xHis antibody (Perkin Elmer, USA) and 40 nM of Sure Light Allophycocyanin-Streptavidin (Perkin Elmer, USA). Fluorescence emission of the samples at 665 and 615 nm were measured at an excitation of 340 nm and their ratio was plotted against the compound concentrations to generate dose-response curve. The percent inhibition of the test compounds is calculated using the ratio of enzyme activity controls.
elected compounds of the present invention were screened in the above-mentioned assay procedures and IC50 values were determined by fitting the dose-response data to sigmoidal curve fitting equation using Graph pad prism software V7.
(In TR-FRET formats the signal depends on donor and acceptor labels being close together.)

Experiment [2] concerns the target T2, recombinant BRD4 FL bromodomain (Homo sapiens, UniProt O60885).
T2 construct: fused on or other part: 6xHis tag, inferred from detection with Mab ANTI 6HIS-XL665
Nature of the experiment: BRD4 FL TR-FRET displacement assay. It is filed as binding. The note with it: BRD4 FL; for inhibition at 10 µM: read-out: % Inhibition (10 μM); for IC50: dose-response, read-out: IC50 (group A, B, C). On the procedure:
The potency of compounds to inhibit BRD4 FL enzyme was tested in a TR-FRET displacement assay using recombinant BRD4 FL bromodomain obtained In-house. The assay buffer was 50 mM HEPES (pH 7.5), 50 mM NaCl, 500 μM CHAPS. 10 nM of BRD4 FL & 300 nM of Biotinylated Acetyl histone H4 (Lys 5, 8, 12, 16) (Millipore, USA) was incubated at room temperature for 30 minutes, the reaction was initiated by adding the pre-incubated enzyme ligand mixture to the test compounds. After 30 min incubation, the reaction was stopped by the addition of stop mix containing 1 nM of Europium Streptavidin cryptate (Cisbio, USA) and 5 nM of Mab ANTI 6HIS-XL665 (Cisbio, USA) dilutes in assay buffer containing 2.4M Potassium Fluoride. Fluorescence emission of the samples at 665 and 615 nm were measured at an excitation of 340 nm and their ratio was plotted against the compound concentrations to generate dose-response curve. The percent inhibition of the test compounds is calculated using the ratio of enzyme activity controls.
Selected compounds of the present invention were screened in the above-mentioned assay procedures and IC50 values were determined by fitting the dose-response data to sigmoidal curve fitting equation using Graph pad prism software V7.

The values below come from patent publication US20230322724A1, “HETEROCYCLIC COMPOUNDS AS CBP/EP300 BROMODOMAIN INHIBITORS” (AURIGENE ONCOLOGY LIMITED, priority 2020, published 2023).

Each structure is given as a SMILES string.

T1 sequence (Q92793 1085-1192 limits assumed): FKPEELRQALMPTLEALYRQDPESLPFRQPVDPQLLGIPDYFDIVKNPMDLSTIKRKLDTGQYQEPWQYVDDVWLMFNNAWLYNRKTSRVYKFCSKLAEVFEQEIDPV

Take `COc1cc(N2CCN(C)c3cc(-c4cnn(C)c4)nc(C)c32)c2cc(C)c(=O)n(C)c2c1` [Example 127]: the half-maximal inhibitory concentration (IC50) (as a rule, the point on the concentration scale where inhibition reaches its midpoint) in experiment [1] is less than 50 nM. In addition, the inhibition (in general, the share of the control response that was lost under treatment) at 10 µM in experiment [2] (compound at 10 μM) amounted to 32%.
In the case of `CC(=O)N1CCN(c2cc(N3CCOCC3)cc3c2cc(C)c(=O)n3C)c2cnc(-c3cnn(C)c3)cc21` [Example 162, 5-(1-Acetyl-7-(1-methyl-1H-pyrazol-4-yl)-2,3-dihydropyrido[3,4-b]pyrazin-4(1H)-yl)-1,3-dimethyl-7-morpholinoquinolin-2(1H)-one], the results for the 50% inhibitory concentration (IC50) in experiment [1] and in experiment [2] were less than 50 nM and 2010 to 5000 nM, respectively.
`COc1cc(N2CCN(C)c3ccc(S(=O)(=O)NC(=O)C(F)(F)F)cc32)c2cc(C)c(=O)n(C)c2c1` [Example 107]: the IC50 in experiment [1] fell in the range of 51 to 100 nM. The inhibition at 10 µM in experiment [2] (compound at 10 μM) was 15%.
For the compound `COc1cc(N2CCN(C3CC3)c3ccc(S(N)(=O)=O)cc32)c2cc(C)c(=O)n(C)c2c1` [Example 96], the results for the half-maximal inhibitory concentration (IC50) in experiment [1] and in experiment [2] were 51 to 100 nM and 2010 to 5000 nM, respectively.
As to `CC1Cc2c(cc(N3CC[C@@H](O)C3)nc2N2CCCc3cc(-c4cnn(C)c4)c(C(F)F)cc32)N(C)C1=O` (stereo partly drawn) [Example 243, 5-(7-(Difluoromethyl)-6-(1-methyl-1H-pyrazol-4-yl)-3,4-dihydroquinolin-1(2H)-yl)-7-((R)-3-hydroxypyrrolidin-1-yl)-1,3-dimethyl-3,4-dihydro-1,6-naphthyridin-2(1H)-one], the IC50 was more than 10 nM in experiment [1] and 2010 to 5000 nM in experiment [2].
Regarding `Cc1cc2c(N3CCN(C)c4cc(C5CC5)ncc43)cc(N3CCOCC3)cc2n(C)c1=O` [Example 138], the 50% inhibitory concentration (IC50) in experiment [2] is 2010 to 5000 nM.
With `Cc1cc2c(N3CCN(C)c4cc(C5CCOC5)ncc43)cc(N3CCOCC3)cc2n(C)c1=O` (centres unmarked) [Example 137], the inhibition at 10 µM in experiment [2] (compound at 10 μM) turned out to be 26%.
Turning to `COc1cc(N2CCN(C)c3cc(N4CCCC(NC(C)=O)C4)ncc32)c2cc(C)c(=O)n(C)c2c1` (centres unmarked) [Example 122], the inhibition at 10 µM in experiment [2] (compound at 10 μM) was 33%.
Regarding `COc1cc(N2CCCc3ccc(S(=O)(=O)NC(C)=O)cc32)c2cc(C)c(=O)n(C)c2c1` [Example 199, N-((T-methoxy-1′,3′-dimethyl-2′-oxo-1′,2′,3,4-tetrahydro-2H-[1,5′-biquinolin]-7 yl)sulfonyl)acetamide], in experiment [2] (compound at 10 μM), the “% Inhibition (10 μM)” value is 45%.
Turning to `Cc1cc2c(N3CCCc4cc(-c5cnn(C)c5)c(C(F)F)cc43)nc(-n3ccnc3)cc2n(C)c1=O` [Example 204], the inhibition at 10 µM in experiment [2] (compound at 10 μM) stood at 12%.
In the case of `Cc1cc2c(N3CCN(C)c4ccc(S(N)(=O)=O)cc43)cc(N3CC[C@@H](O)C3)cc2n(C)c1=O` [Example 92, (R)-4-(7-(3-Hydroxypyrrolidin-1-yl)-1,3-dimethyl-2-oxo-1,2-dihydroquinolin-5-yl)-1-methyl-1,2,3,4-tetrahydroquinoxaline-6-sulfonamide], in experiment [2], the IC50 lay within 2010 to 5000 nM.
For the compound `COc1cc(N2CCN(C)c3cc(N4CCN(C(C)=O)CC4)ncc32)c2cc(C)c(=O)n(C)c2c1` [Example 119], the IC50 in experiment [2] was in the range of 2010 to 5000 nM.
With `Cc1cc2c(N3CCN(C)c4cc(-c5cnn(C)c5)ncc43)cc(N3CCCC(C#N)C3)cc2n(C)c1=O` (centres unmarked) [Example 149], in experiment [2], the half-maximal inhibitory concentration (IC50) fell in the range of 2010 to 5000 nM.
In the case of `COc1cc(N2CCN(C)c3ccc([S+](C)[O-])cc32)c2cc(C)c(=O)n(C)c2c1` (single isomer, unassigned) [Example 249], the IC50 in experiment [2] was 2010 to 5000 nM.
On the same count and under the same terms, to `COc1cc(N2CCCc3ccc(NC(C)=O)cc32)c2cc(C)c(=O)n(C)c2c1` [Example 196, N-(7′-methoxy-1′,3′-dimethyl-2′-oxo-1′,2′,3,4-tetrahydro-2H-[1,5′-biquinolin]-7-yl)acetamide] belongs 2010 to 5000 nM.
As for `Cc1cc2c(N3CCN(C)c4nc(-c5cnn(C)c5)ncc43)cc(N3CCOCC3)cc2n(C)c1=O` [Example 76, 1,3-Dimethyl-5-(8-methyl-2-(1-methyl-1H-pyrazol-4-yl)-7,8-dihydropteridin-5(6H)-yl)-7-morpholinoquinolin-2(1H)-one], in experiment [1], the IC50 was less than 50 nM.
Still for that read-out and setting: the same measure for `Cc1cc2c(N3CCSc4cc(-c5cnn(C)c5)ncc43)cc(N3CCOCC3)cc2n(C)c1=O` [Example 171]: less than 50 nM; for `CCN1CCN(c2cc(OC)cc3c2cc(C)c(=O)n3C)c2cc(C#N)c(N3CCN(C(C)=O)CC3)cc21` [Example 32]: less than 50 nM.
On the same count and under the same terms, to `CNC(=O)c1ccc(-c2ccc3c(c2)CCCN3c2cc(OC)cc3c2cc(C)c(=O)n3C)cn1` [Example 186] belongs 51 to 100 nM.
Still for that read-out and setting: the same measure for `Cc1cc2c(N3CCCc4cc(-c5cnn(C)c5)c(C(F)F)cc43)nc(N3CCN(C)CC3)cc2n(C)c1=O` [Example 223]: less than 50 nM; for `COc1cc(N2CCN(C)c3cc(N4CC(C)NC(C)C4)c(C#N)cc32)c2cc(C)c(=O)n(C)c2c1` (centres unmarked) [Example 24]: more than 10 nM.
With `Cc1cc2c(N3CCCc4cc(-c5cnn(C)c5)c(C(F)F)cc43)nc(N3CC(O)C(O)C3)cc2n(C)c1=O` (centres unmarked) [Example 213], the 50% inhibitory concentration (IC50) in experiment [1] was less than 50 nM.
On to `COc1cc(N2CCCc3ccc(-c4cn[nH]c4)cc32)c2cc(C)c(=O)n(C)c2c1` [Example 198, 7′-Methoxy-1′,3′-dimethyl-7-(1H-pyrazol-4-yl)-3,4-dihydro-2H-[1,5′-biquinolin]-2′(1′H)-one], for which, in experiment [2], the IC50 lay within 2010 to 5000 nM.
Consider `COc1cc(N2CCN(C)c3cc(N4CCCC(C#N)C4)ncc32)c2cc(C)c(=O)n(C)c2c1` (centres unmarked) [Example 120], for which the inhibition at 10 µM in experiment [2] (compound at 10 μM) is 34%.
With `Cc1cc2c(N3CCN(C)c4ccc(C#N)cc43)cccc2[nH]c1=O` [Example 115, 1-Methyl-4-(3-methyl-2-oxo-1,2-dihydroquinolin-5-yl)-1,2,3,4-tetrahydroquinoxaline-6-carbonitrile], the 50% inhibitory concentration (IC50) in experiment [1] is less than 50 nM.
On to `Cc1cc2c(N3CCCc4cc(-c5cccn(C)c5=O)c(C(F)F)cc43)nc(C3CCOCC3)cc2n(C)c1=O` [Example 235, 5-(7-(difluoromethyl)-6-(1-methyl-2-oxo-1,2-dihydropyridin-3-yl)-3,4-dihydroquinolin-1(2H)-yl)-1,3-dimethyl-7-(tetrahydro-2H-pyran-4-yl)-1,6-naphthyridin-2(1H)-one], for which the IC50 in experiment [1] was less than 50 nM.
Same read-out and setting: to `COc1cc(N2CCc3c(c(-c4cnn(C)c4)nn3C)C2)c2cc(C)c(=O)n(C)c2c1` [Example 191] belongs more than 10 nM.
In the case of `COc1cc(N2CCN(C)c3ccc(S(=O)(=O)NC(=O)C(C)(C)C)cc32)c2cc(C)c(=O)n(C)c2c1` [Example 111], in experiment [1], the 50% inhibitory concentration (IC50) is more than 10 nM.
Turning to `Cc1cc2c(N3CCN(C)c4cc(-c5cnn(C)c5)ncc43)cc(OC3CCOCC3)cc2n(C)c1=O` [Example 158], the 50% inhibitory concentration (IC50) in experiment [1] is less than 50 nM.
In the case of `COc1cc(N2CCN(C)c3cc(N4CCC(C(=O)NCCO)CC4)c(C#N)cc32)c2cc(C)c(=O)n(C)c2c1` [Example 59, 1-(7-Cyano-1-(7-methoxy-1,3-dimethyl-2-oxo-1,2-dihydroquinolin-5-yl)-4-methyl-1,2,3,4-tetrahydroquinoxalin-6-yl)-N-(2-hydroxyethyl)piperidine-4-carboxamide], the IC50 in experiment [1] is less than 50 nM.
Regarding `CNC(=O)c1ccc(-c2cc3c(cc2C(F)F)N(c2nc(N4CCOCC4)cc4c2cc(C)c(=O)n4C)CCC3)cn1` [Example 203], the IC50 in experiment [2] was 2010 to 5000 nM.
With `CNC(=O)N1CCN(c2cc3c(cc2C#N)N(c2cc(OC)cc4c2cc(C)c(=O)n4C)CCN3C)CC1` [Example 28], in experiment [1], the 50% inhibitory concentration (IC50) is less than 50 nM.
Turning to `Cc1cc2c(N3CCCc4cc(C5CCOC5)c(C(F)F)cc43)nc(N3CC[C@@H](O)C3)cc2n(C)c1=O` (some centres unmarked) [Example 228], the IC50 in experiment [1] was less than 50 nM.
As for `Cc1cc2c(N3CCN(C)c4cc(N5CCCCC5)ncc43)cc(N3CCOCC3)cc2n(C)c1=O` [Example 139], in experiment [2] (compound at 10 μM), the inhibition at 10 µM is 43%.
In the case of `COc1cc(N2CCN(C)c3cc(-c4cnn(C)c4)c(F)cc32)c2cc(C)c(=O)n(C)c2c1` [Example 30], the half-inhibitory concentration (IC50) in experiment [1] was less than 50 nM.
Consider `COc1cc(N2CCN(C)c3cc(S(N)(=O)=O)ccc32)c2cc(C)c(=O)n(C)c2c1` [Example 114, 1-(7-Methoxy-1,3-dimethyl-2-oxo-1,2-dihydroquinolin-5-yl)-4-methyl-1,2,3,4-tetrahydroquinoxaline-6-sulfonamide], for which the IC50 in experiment [1] was more than 10 nM.
